This note sets out measurements from the supplement of paper PMC10307832.

Test in all cases: relative viability (nuclei count vs DMSO), 5 days (fraction); higher = more cells survive
Compound in assay [1]: C1=CC=C2C(=C1)N=C(S2)C(C#N)C3=NC(=NC=C3)NCCC4=CN=CC=C4 + Nc1nc2[nH]cc(CCc3ccc(C(=O)N[C@@H](CCC(=O)O)C(=O)O)cc3)c2c(=O)[nH]1 [Pemetrexed] (partner 0.2 µM)
The essentials:
(§1)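 For relative viability, nuclei counts in treated wells were divided by those in vehicle wells. Lung cancer cell lines had been pin-tool dosed in 1536-well plates the day after seeding and cultured for 5 days, then fixed and stained in one step (final 0.05% Triton X-100, 1% formaldehyde, 1 ug/ml Hoechst) and imaged at 4×. Doses were one drug alone or a fixed anchor-drug dose plus five library-drug doses (not always all listed) in √10 steps, and values are duplicate-plate medians.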

Compound in the assay “Vandetanib + Dasatinib”: COc1cc2/c(=N/c3ccc(Br)cc3F)nc[nH]c2cc1OCC1CCN(C)CC1 [Vandetanib] + Cc1nc(Nc2ncc(C(=O)Nc3c(C)cccc3Cl)s2)cc(N2CCN(CCO)CC2)n1 [Dasatinib] (partner 0.075 µM)
The method in brief:
as §1

Compound in assay [2]: C1=CC=C2C(=C1)N=C(S2)C(C#N)C3=NC(=NC=C3)NCCC4=CN=CC=C4 + COc1cccc2cc(-c3nc([C@H]4CC[C@H](C(=O)O)CC4)n4ncnc(N)c34)[nH]c12 [OSI-027] (partner 0.5 µM)
The essentials:
as §1

Compound in the assay “CUDC-101 + Luminespib”: C#Cc1cccc(Nc2ncnc3cc(OC)c(OCCCCCCC(=O)NO)cc23)c1 [CUDC-101] + CCNC(=O)c1noc(-c2cc(C(C)C)c(O)cc2O)c1-c1ccc(CN2CCOCC2)cc1 [Luminespib] (partner 0.01 µM)
The method in brief:
as §1

Consider NCI-H2170, for which the relative viability in assay [1] (first compound 0.005 µM) came to 0.275; in assay [1] (first compound 0.01581 µM), 0.26; in assay [1] (first compound 0.05 µM), 0.27; in assay [1] (first compound 0.1581 µM), 0.27; in assay [1] (first compound 0.5 µM) it was 0.274; with Vandetanib + Dasatinib (first compound 0.02 µM), 0.55. Also, the relative viability in the assay with Vandetanib + Dasatinib (first compound 0.06325 µM) came to 0.555; in the assay with Vandetanib + Dasatinib (first compound 0.2 µM), 0.487; with Vandetanib + Dasatinib (first compound 0.6325 µM), 0.462; in the assay with Vandetanib + Dasatinib (first compound 2 µM), 0.609; in assay [2] (first compound 0.005 µM), 0.687; in assay [2] (first compound 0.01581 µM), 0.653. For the same cell line, the relative viability in assay [2] (first compound 0.05 µM) came to 0.718; in assay [2] (first compound 0.1581 µM), 0.698; in assay [2] (first compound 0.5 µM) it was 0.706; in the assay with CUDC-101 + Luminespib (first compound 0.01 µM) it was 0.626; in the assay with CUDC-101 + Luminespib (first compound 0.03162 µM), 0.286; in the assay with CUDC-101 + Luminespib (first compound 0.1 µM), 0.719. The results for the relative viability with CUDC-101 + Luminespib (first compound 0.3162 µM) and in the assay with CUDC-101 + Luminespib (first compound 1 µM) were 0.471 and 0.465, respectively.

For the cell line NCI-H2228, the relative viability in assay [1] (first compound 0.005 µM) amounted to 0.302; in assay [1] (first compound 0.01581 µM) it was 0.324; in assay [1] (first compound 0.05 µM) it was 0.305; in assay [1] (first compound 0.1581 µM), 0.379; in assay [1] (first compound 0.5 µM) it was 0.259; in the assay with Vandetanib + Dasatinib (first compound 0.02 µM), 0.464. In addition, the relative viability came to 0.478 with Vandetanib + Dasatinib (first compound 0.06325 µM); 0.503 with Vandetanib + Dasatinib (first compound 0.2 µM); 0.463 with Vandetanib + Dasatinib (first compound 0.6325 µM); 0.481 in the assay with Vandetanib + Dasatinib (first compound 2 µM); 0.404 in assay [2] (first compound 0.005 µM); 0.556 in assay [2] (first compound 0.01581 µM). For the same cell line, the relative viability in assay [2] (first compound 0.05 µM) amounted to 0.561; in assay [2] (first compound 0.1581 µM) it was 0.578; in assay [2] (first compound 0.5 µM) it was 0.492; in the assay with CUDC-101 + Luminespib (first compound 0.01 µM) it was 0.114; with CUDC-101 + Luminespib (first compound 0.03162 µM), 0.164; in the assay with CUDC-101 + Luminespib (first compound 0.1 µM), 0.169. The relative viability turned out to be 0.19 with CUDC-101 + Luminespib (first compound 0.3162 µM) and 0.188 with CUDC-101 + Luminespib (first compound 1 µM).

Regarding NCI-H2342, the relative viability came out at 0.823 in assay [1] (first compound 0.005 µM); 0.716 in assay [1] (first compound 0.01581 µM); 0.697 in assay [1] (first compound 0.05 µM); 0.85 in assay [1] (first compound 0.1581 µM); 0.81 in assay [1] (first compound 0.5 µM); 0.339 with Vandetanib + Dasatinib (first compound 0.02 µM). The relative viability was 0.335 with Vandetanib + Dasatinib (first compound 0.06325 µM); 0.321 with Vandetanib + Dasatinib (first compound 0.2 µM); 0.315 with Vandetanib + Dasatinib (first compound 0.6325 µM); 0.361 with Vandetanib + Dasatinib (first compound 2 µM); 0.532 in assay [2] (first compound 0.005 µM); 0.64 in assay [2] (first compound 0.01581 µM). Moreover, the relative viability stood at 0.569 in assay [2] (first compound 0.05 µM); 0.671 in assay [2] (first compound 0.1581 µM); 0.578 in assay [2] (first compound 0.5 µM); 0.764 in the assay with CUDC-101 + Luminespib (first compound 0.01 µM); 0.644 with CUDC-101 + Luminespib (first compound 0.03162 µM); 0.829 with CUDC-101 + Luminespib (first compound 0.1 µM). In addition, the relative viability with CUDC-101 + Luminespib (first compound 0.3162 µM) turned out to be 0.737; with CUDC-101 + Luminespib (first compound 1 µM), 0.692.

For the cell line NCI-H2347, the relative viability in assay [1] (first compound 0.005 µM) came out at 0.405; in assay [1] (first compound 0.01581 µM), 0.515; in assay [1] (first compound 0.05 µM), 0.471; in assay [1] (first compound 0.1581 µM), 0.409; in assay [1] (first compound 0.5 µM) it was 0.461; with Vandetanib + Dasatinib (first compound 0.02 µM), 0.299. Also, the relative viability in the assay with Vandetanib + Dasatinib (first compound 0.2 µM) was 0.312; in the assay with Vandetanib + Dasatinib (first compound 0.6325 µM) it was 0.323; with Vandetanib + Dasatinib (first compound 2 µM), 0.345; in assay [2] (first compound 0.005 µM) it was 0.454; in assay [2] (first compound 0.01581 µM) it was 0.394; in assay [2] (first compound 0.05 µM), 0.39. Further, the relative viability was determined as 0.58 in assay [2] (first compound 0.1581 µM); 0.408 in assay [2] (first compound 0.5 µM); 0.617 with CUDC-101 + Luminespib (first compound 0.01 µM); 0.458 in the assay with CUDC-101 + Luminespib (first compound 0.03162 µM); 0.47 with CUDC-101 + Luminespib (first compound 0.1 µM); 0.415 with CUDC-101 + Luminespib (first compound 0.3162 µM). In addition, the relative viability with CUDC-101 + Luminespib (first compound 1 µM) was 0.331.

For the cell line NCI-H2405, the relative viability in assay [1] (first compound 0.005 µM) came out at 1.14; in assay [1] (first compound 0.01581 µM), 0.998; in assay [1] (first compound 0.05 µM), 1.07; in assay [1] (first compound 0.1581 µM), 1.1; in assay [1] (first compound 0.5 µM) it was 0.98; with Vandetanib + Dasatinib (first compound 0.02 µM) it was 0.217. Further, the relative viability with Vandetanib + Dasatinib (first compound 0.06325 µM) stood at 0.183; in the assay with Vandetanib + Dasatinib (first compound 0.2 µM), 0.2; with Vandetanib + Dasatinib (first compound 0.6325 µM), 0.187; with Vandetanib + Dasatinib (first compound 2 µM), 0.199; in assay [2] (first compound 0.005 µM), 0.666; in assay [2] (first compound 0.01581 µM), 0.673. The relative viability in assay [2] (first compound 0.05 µM) was 0.614; in assay [2] (first compound 0.1581 µM), 0.695; in assay [2] (first compound 0.5 µM), 0.645; with CUDC-101 + Luminespib (first compound 0.01 µM) it was 0.797; with CUDC-101 + Luminespib (first compound 0.03162 µM), 0.662; in the assay with CUDC-101 + Luminespib (first compound 0.1 µM), 0.703. Further, the relative viability in the assay with CUDC-101 + Luminespib (first compound 0.3162 µM) was 0.917; with CUDC-101 + Luminespib (first compound 1 µM), 0.741.

For NCI-H3122, the relative viability in assay [1] (first compound 0.005 µM) amounted to 0.187; in assay [1] (first compound 0.01581 µM), 0.197; in assay [1] (first compound 0.05 µM) it was 0.206; in assay [1] (first compound 0.1581 µM), 0.214; in assay [1] (first compound 0.5 µM), 0.194; with Vandetanib + Dasatinib (first compound 0.02 µM), 0.683. The relative viability with Vandetanib + Dasatinib (first compound 0.06325 µM) was found to be 0.673; with Vandetanib + Dasatinib (first compound 0.2 µM), 0.122; with Vandetanib + Dasatinib (first compound 0.6325 µM), 0.76; with Vandetanib + Dasatinib (first compound 2 µM), 0.797; in assay [2] (first compound 0.005 µM) it was 0.671; in assay [2] (first compound 0.01581 µM) it was 0.923. Moreover, the relative viability in assay [2] (first compound 0.05 µM) was determined as 0.895; in assay [2] (first compound 0.1581 µM) it was 1.34; in assay [2] (first compound 0.5 µM), 0.819; in the assay with CUDC-101 + Luminespib (first compound 0.01 µM), 0.118; with CUDC-101 + Luminespib (first compound 0.03162 µM), 0.0939; with CUDC-101 + Luminespib (first compound 0.1 µM) it was 0.0988. For the same cell line, the relative viability with CUDC-101 + Luminespib (first compound 0.3162 µM) turned out to be 0.112; with CUDC-101 + Luminespib (first compound 1 µM), 0.0815.
